# Data: ChEMBL document CHEMBL5260833, “An overview of quinazolines: Pharmacological significance and recent developments” (Eur J Med Chem, 2018)
# pIC50: −log10 of the molar value.
# Legend:
# [1] = Binding affinity to AT1 in rabbit aorta; format: tissue-based, Oryctolagus cuniculus
# Rattus norvegicus [2] = assay: Anticonvulsant activity in PTZ induced rat at 50 mg/kg, sc measured after 2 to 4 mins relative to control; format: functional; conditions: time 2-4 min
# Rattus norvegicus [3] = assay: Anticonvulsant activity in rat at 50 mg/kg, ip measured after 1 hrs by MES test relative to control; format: functional
# Rattus norvegicus [4] = assay: Anticonvulsant activity in albino rat at 30 mg/kg, ip measured after 1 hrs by MES test; format: functional
# Tobacco mosaic virus = assay: Antiviral activity against TMV at 500 microg/ml; format: functional; conditions: dose 500 µg/ml
SMILES,Activity (Rattus norvegicus [2]),Activity (Rattus norvegicus [3]),inhibition in vivo at 30 mg/kg (Rattus norvegicus [4]),also measured
CCCCc1nc2cc(Cl)ccc2c(=O)n1Cc1ccc(-c2ccccc2-c2nn[nH]n2)cc1,–,–,–,pIC50 [1]: ≤ 8.89
Cc1nc2ccc(I)cc2c(=O)n1NCc1nnc(NCC2C(=O)NC(=O)NC2=O)s1,60%,60%,–,–
Cc1nc2ccccc2c(=O)n1NCc1nnc(NCC2C(=O)NC(=O)NC2=O)s1,60%,60%,–,–
Cc1nc2ccc(Br)cc2c(=O)n1NCC(=O)NNC(=S)NCC1C(=O)NC(=O)NC1=O,40%,40%,–,–
Cc1nc2ccc(Br)cc2c(=O)n1NCc1nnc(N2C(=O)CSC2c2ccc(O)cc2)s1 (stereo not drawn),–,–,60%,–
CCCCc1nc2c(C)cccc2c(=O)n1Cc1ccc(-c2ccccc2C(=O)O)cc1,–,–,–,pIC50 [1]: 6.43
Cc1nc2ccc(Br)cc2c(=O)n1NCC(=O)NNC(N)=S,20%,20%,30%,–
Cc1nc2ccc(I)cc2c(=O)n1NCc1nnc(N)s1,40%,40%,–,–
Cc1nc2ccccc2c(=O)n1NCc1nnc(NCC2C(=O)NC(=S)NC2=O)s1,60%,60%,–,–
Cc1nc2ccc(Br)cc2c(=O)n1NCc1nnc(NCC2C(=O)NC(=O)NC2=O)s1,60%,60%,–,–
Cc1nc2c(Br)cc(Br)cc2c(=O)n1NCc1nnc(NCC2C(=O)NC(=O)NC2=O)s1,60%,60%,–,–
Cc1nc2c(Br)cc(Br)cc2c(=O)n1NCC(=O)NNC(=S)NCC1C(=O)NC(=S)NC1=O,40%,40%,–,–
CCCCc1nc2ccccc2c(=O)n1Cc1ccc(-c2ccccc2C(=O)O)cc1,–,–,–,pIC50 [1]: 7.04
Cc1nc2ccc(Br)cc2c(=O)n1NCC(=O)NNC(=S)NCC1C(=O)NC(=S)NC1=O,40%,40%,–,–
Cc1nc2c(Br)cc(Br)cc2c(=O)n1NCC(=O)NNC(=S)NCC1C(=O)NC(=O)NC1=O,40%,40%,–,–
COc1ccc(/C=N/c2nnc(CNn3c(C)nc4ccc(Br)cc4c3=O)s2)cc1,–,–,50%,–
Cc1nc2ccc(Br)cc2c(=O)n1NCc1nnc(N)s1,40%,40%,–,–
COc1cc(C2SCC(=O)N2c2nnc(CNn3c(C)nc4ccc(Br)cc4c3=O)s2)ccc1O (stereo not drawn),–,–,60%,–
Cc1nc2ccccc2c(=O)n1NCc1nnc(N2C(=O)CSC2c2ccc(O)cc2)s1 (stereo not drawn),–,–,60%,–
CCOC(=O)CNn1c(C)nc2c(Br)cc(Br)cc2c1=O,10%,10%,–,–
Cc1nc2ccc(Br)cc2c(=O)n1NCc1nnc(NCC2C(=O)NC(=S)NC2=O)s1,60%,60%,–,–
COc1ccc(C2SCC(=O)N2c2nnc(CNn3c(C)nc4ccc(Br)cc4c3=O)s2)cc1 (stereo not drawn),–,–,60%,–
COc1ccc(/C=N/c2nnc(CNn3c(C)nc4ccccc4c3=O)s2)cc1,–,–,50%,–
Cc1nc2ccccc2c(=O)n1NCC(=O)NNC(=S)NCC1C(=O)NC(=O)NC1=O,40%,40%,–,–
CCOC(=O)CNn1c(C)nc2ccccc2c1=O,10%,10%,20%,–

SMILES,Activity (Rattus norvegicus [2]),Activity (Rattus norvegicus [3]),inhibition in vivo at 30 mg/kg (Rattus norvegicus [4]),also measured
CCCC(CCC)C(=O)[O-].[Na+] [VALPROATE SODIUM],80%,80%,–,–
Cc1nc2ccc(I)cc2c(=O)n1NCC(=O)NNC(=S)NCC1C(=O)NC(=S)NC1=O,40%,40%,–,–
Cc1nc2ccc(Br)cc2c(=O)n1NCc1nnc(/N=C/c2ccccc2)s1,–,–,50%,–
Nc1nnc(-c2cccc(Cl)c2Cl)c(N)n1 [LAMOTRIGINE],–,–,90%,–
COc1cc(C2SCC(=O)N2c2nnc(CNn3c(C)nc4ccccc4c3=O)s2)ccc1O (stereo not drawn),–,–,60%,–
Cc1nc2ccc(I)cc2c(=O)n1NCC(=O)NNC(N)=S,20%,20%,–,–
COc1ccc(C2SCC(=O)N2c2nnc(CNn3c(C)nc4ccccc4c3=O)s2)cc1 (stereo not drawn),–,–,60%,–
O=C1N=C([O-])NC1(c1ccccc1)c1ccccc1.[Na+] [PHENYTOIN SODIUM],80%,80%,80%,–
COc1cccc(/C=N/c2nnc(CNn3c(C)nc4ccc(Br)cc4c3=O)s2)c1,–,–,50%,–
Cc1nc2ccc(Br)cc2c(=O)n1NCc1nnc(/N=C/c2ccc(N(C)C)cc2)s1,–,–,50%,–
Cc1nc2ccc(Br)cc2c(=O)n1NCc1nnc(N2C(=O)CSC2c2ccccc2)s1 (stereo not drawn),–,–,60%,–
Cc1nc2ccccc2c(=O)n1NCc1nnc(/N=C/c2ccccc2)s1,–,–,50%,–
Cc1nc2c(Br)cc(Br)cc2c(=O)n1NCc1nnc(NCC2C(=O)NC(=S)NC2=O)s1,60%,60%,–,–
Cc1nc2ccccc2c(=O)n1/C=C/c1cccc(Cl)c1Cl,–,–,–,Activity (Tobacco mosaic virus): 54%
COc1cccc(/C=N/c2nnc(CNn3c(C)nc4ccccc4c3=O)s2)c1,–,–,50%,–
COc1ccc(/C=C/n2c(C)nc3ccc(Br)cc3c2=O)cc1OC,–,–,–,Activity (Tobacco mosaic virus): 54%
O=c1c2ccccc2nc(-c2ccccc2)n1/C=C/c1cccc(Cl)c1,–,–,–,Activity (Tobacco mosaic virus): 54%
Cc1nc2ccc(I)cc2c(=O)n1NCC(=O)NNC(=S)NCC1C(=O)NC(=O)NC1=O,40%,40%,–,–
CCOC(=O)CNn1c(C)nc2ccc(Br)cc2c1=O,10%,10%,20%,–
Cc1nc2ccc(Br)cc2c(=O)n1NCc1nnc(/N=C/c2ccc(O)cc2)s1,–,–,50%,–
O=c1c2ccccc2nc(-c2ccccc2)n1/C=C/c1cccc(C(F)(F)F)c1,–,–,–,Activity (Tobacco mosaic virus): 54%
O=c1c2ccccc2nc(-c2ccncc2)n1/C=C/c1ccccc1,–,–,–,Activity (Tobacco mosaic virus): 54%
Cc1nc2ccc(I)cc2c(=O)n1NCc1nnc(NCC2C(=O)NC(=S)NC2=O)s1,60%,60%,–,–
Cc1nc2ccc(Br)cc2c(=O)n1/C=C/c1ccc(Cl)c([N+](=O)[O-])c1,–,–,–,Activity (Tobacco mosaic virus): 54%
Cc1nc2ccc(Br)cc2c(=O)n1/C=C/c1c(Cl)cccc1Cl,–,–,–,Activity (Tobacco mosaic virus): 54%

SMILES,Activity (Rattus norvegicus [2]),Activity (Rattus norvegicus [3]),inhibition in vivo at 30 mg/kg (Rattus norvegicus [4]),also measured
COc1ccc(OC)c(/C=C/n2c(C)nc3ccc(Br)cc3c2=O)c1,–,–,–,Activity (Tobacco mosaic virus): 54%
Cc1nc2ccccc2c(=O)n1NCC(=O)NNC(N)=S,20%,20%,30%,–
O=c1c2ccccc2nc(-c2ccccc2)n1/C=C/c1ccc(F)c(F)c1,–,–,–,Activity (Tobacco mosaic virus): 54%
O=c1c2ccccc2nc(-c2ccccc2)n1/C=C/c1ccc(C(F)(F)F)cc1,–,–,–,Activity (Tobacco mosaic virus): 54%
Cc1nc2ccccc2c(=O)n1NCC(=O)NNC(=S)NCC1C(=O)NC(=S)NC1=O,40%,40%,–,–
COc1cc(/C=N/c2nnc(CNn3c(C)nc4ccc(Br)cc4c3=O)s2)ccc1O,–,–,50%,–
Cc1nc2ccccc2c(=O)n1NCc1nnc(N2C(=O)CSC2c2ccccc2)s1 (stereo not drawn),–,–,60%,–
Cc1nc2ccc(Br)cc2c(=O)n1/C=C/c1ccc(Cl)cc1Cl,–,–,–,Activity (Tobacco mosaic virus): 54%
COc1cccc(C2SCC(=O)N2c2nnc(CNn3c(C)nc4ccc(Br)cc4c3=O)s2)c1 (stereo not drawn),–,–,60%,–
COc1cccc(C2SCC(=O)N2c2nnc(CNn3c(C)nc4ccccc4c3=O)s2)c1 (stereo not drawn),–,–,60%,–
Cc1nc2ccccc2c(=O)n1NCc1nnc(/N=C/c2ccc(N(C)C)cc2)s1,–,–,50%,–
CCOC(=O)CNn1c(C)nc2ccc(I)cc2c1=O,10%,10%,–,–
Cc1nc2ccccc2c(=O)n1NCc1nnc(/N=C/c2ccc(O)cc2)s1,–,–,50%,–
COc1cc(/C=N/c2nnc(CNn3c(C)nc4ccccc4c3=O)s2)ccc1O,–,–,50%,–
O=c1c2ccccc2nc(-c2ccncc2)n1/C=C/c1ccc(F)cc1,–,–,–,Activity (Tobacco mosaic virus): 54%
Cc1nc2c(Br)cc(Br)cc2c(=O)n1NCC(=O)NNC(N)=S,20%,20%,–,–
Cc1nc2c(Br)cc(Br)cc2c(=O)n1NCc1nnc(N)s1,40%,40%,–,–
Cc1nc2ccccc2c(=O)n1NCc1nnc(N)s1,40%,40%,–,–
O=c1c2ccccc2nc(-c2ccncc2)n1/C=C/c1ccccc1Cl,–,–,–,Activity (Tobacco mosaic virus): 54%
Cc1nc2ccc(Br)cc2c(=O)n1/C=C/c1ccc(F)cc1,–,–,–,Activity (Tobacco mosaic virus): 54%
Cc1nc2ccc(Br)cc2c(=O)n1NCc1nnc(N2C(=O)CSC2c2ccc(N(C)C)cc2)s1 (stereo not drawn),–,–,60%,–
Cc1nc2ccccc2c(=O)n1NCc1nnc(N2C(=O)CSC2c2ccc(N(C)C)cc2)s1 (stereo not drawn),–,–,60%,–
O=c1c2ccccc2nc(-c2ccncc2)n1/C=C/c1cccc(Cl)c1Cl,–,–,–,Activity (Tobacco mosaic virus): 54%
